{"source": "patent US20020150975A1", "about": "(priority 2000, published 2002)"}
{"system": "SCLC cells", "assay_type": "cell-based, human"}
{"compound": "alpha-cobratoxin", "effect on proliferation / rate of growth of SCLC cells": "slow down or suppress proliferation"}
{"compound": "CN1CCCC1c1cccnc1", "note": "(stereo not drawn) [nicotine]", "effect on proliferation / rate of growth of SCLC cells": "increase the rate of growth"}
{"compound": "alpha-bungarotoxin", "effect on proliferation / rate of growth of SCLC cells": "slow down or suppress proliferation"}
